Source: publication PMC10934261, “Designing Potent Anti-Cancer Agents: Synthesis and Molecular Docking Studies of Thieno[2,3-d][1,2,4]triazolo[1,5-a]pyrimidine Derivatives” (Molecules, 2024)

How the values were obtained:
[1] = test system: human breast MCF-7 cancer cell line; assay: In vitro cytotoxic screening (MTT assay), MCF-7; format: cell-based; settings: for Percentage cytotoxicity on MCF-7: average ± standard deviation
Description: (§1) Using human breast MCF-7, colorectal HCT-116, and prostate PC-3 cancer cell lines, preliminary antiproliferative effectiveness of cyclopenta[4,5]thieno[2,3-d][1,2,4]triazolo[1,5-a]pyrimidin-9(6H)-ones 4–16 was established in vitro through MTT assay at different concentrations (100, 50, 25 and 12.5 μM) (Figure 2).
(§2) The cell lines were obtained from Karolinska Center, Department of Oncology and Pathology, Karolinska Institute and Hospital, Stockholm, Sweden. as follows: human breast MCF-7, colorectal HCT-116 and prostate PC-3 cancer cell lines and human skin normal BJ-1 cell line. Exponentially, cells were cultured at a concentration of 10^4 cells/well for 24 h, afterwards fresh medium containing different concentrations of the tested samples was added. Serial two-fold dilution of the tested samples were added using a multichannel pipette. Moreover, all cells were cultivated at 37 °C, 5% CO2 and 95% humidity. Also, incubation of control cells occurred at 37 °C. However, after incubation for 24 h different concentrations of samples (100, 50, 25 and 12.5 µM) were added and the incubation was continued for 48 h, then crystal violet solution 1% was added to each well for 0.5 h to examine the presence of viable cells. After rinsing the wells using water until stain free, 30% glacial acetic acid was added to all wells with shaking the plates on a Microplate reader (TECAN, Inc.) to measure the absorbance at a wavelength of 490 nm. The cytotoxicity was estimated by IC50 in μM, which is the concentration that inhibits 50% of growth of cancer cells. […]
(§3) 1.1. In vitro cytotoxic screening
(§4) The cell lines were obtained from Karolinska Center, Department of Oncology and Pathology, Karolinska Institute and Hospital, Stockholm, Sweden. as follows: human breast MCF-7, colorectal HCT-116 and prostate PC-3 cancer cell lines and human skin normal BJ-1 cell line. Exponentially, cells were placed in 10^4 cells/ well for 24 h, and then add fresh medium which containing different concentration of the tested sample. Serial two-fold dilution of the tested sample were added using a multichannel pipette. Moreover, all cells were cultivated at 37 °C, 5% CO2 and 95% humidity. Also, incubation of control cells occurred at 37 °C. However, after incubation for 24 h different concentrations of sample (100, 50, 25 and 12.5 µM) were added and continued the incubation for 48 h, then, add the crystal violet solution 1% to each well for 0.5 h to examine viable cells. Rinse the wells using water until no stain. After that, add 30% glacial acetic acid to all wells with shaking plates on Microplate reader (TECAN, Inc.) to measure the absorbance, using a test wavelength of 490 nm. Besides, compare the treated samples with the control cell. The cytotoxicity was estimated by IC50 in (μ M), the concentration that inhibits 50% of growth of cancer cell. […]
(§5) The molecular docking simulation of the promising in vitro screened cyclopenta[4,5]thieno[2,3-d][1,2,4]triazolo[1,5-a]pyrimidin-9(6H)-ones 10b and 10e against EGFR and PI3K was done using the Molecular Operating Environment software (MOE-Dock) version 2014.0901. The co-crystallized structures of EGFR and PI3K kinases complexed with their native ligands, erlotinib and quinolone LXX, were downloaded from the protein data bank (PDB codes: 1M17 and 3L54, respectively). All minimizations were performed using MOE until an RMSD gradient of 0.05 kcal∙mol−1Å−1 with MMFF94x force field and the partial charges were automatically calculated. Preparation of the enzyme structures was done for molecular docking using Protonate 3D protocol with the default options in MOE. London dG scoring function and Triangle Matcher placement method were used in the docking protocol. Initially, the original ligands were re-docked into the active binding site of EGFR and PI3K kinases to assess the root-mean-square deviation values. Then, the docking studies of the newly targeted […]

[2] = test system: human colorectal HCT-116 cancer cell line; assay: In vitro cytotoxic screening (MTT assay), HCT-116; format: cell-based; settings: for Percentage cytotoxicity on HCT-116: average ± standard deviation
Description: as §1, §2, §3, §4, §5

[3] = test system: human prostate PC-3 cancer cell line; assay: In vitro cytotoxic screening (MTT assay), PC-3; format: cell-based; settings: for Percentage cytotoxicity on PC-3: average ± standard deviation
Description: as §1, §2, §3, §4, §5

[4] = test system: human skin normal cell line (BJ-1); assay: Cytotoxicity on normal cells (MTT assay), BJ-1; format: cell-based; settings: Homo sapiens; BJ-1 normal skin cells; 48 h incubation; mean of three values; read-out: IC50 (Mean ± SD) BJ-1
Description: It can therefore be concluded that 10b presents a safer cytotoxicity profile than 10e.
as §2, with “However, after incubation for 24 h different concentrations of samples (100, 50, 25 and 12.5 µM) were added and the incubation was continued for 48 h, then crystal violet solution 1% was added to each well for 0.5 h to examine the presence of viable cells.” left out
as §3
The cell lines were obtained from Karolinska Center, Department of Oncology and Pathology, Karolinska Institute and Hospital, Stockholm, Sweden. as follows: human breast MCF-7, colorectal HCT-116 and prostate PC-3 cancer cell lines and human skin normal BJ-1 cell line. Exponentially, cells were placed in 10^4 cells/ well for 24 h, and then add fresh medium which containing different concentration of the tested sample. Serial two-fold dilution of the tested sample were added using a multichannel pipette. Moreover, all cells were cultivated at 37 °C, 5% CO2 and 95% humidity. Also, incubation of control cells occurred at 37 °C. […]
Rinse the wells using water until no stain. After that, add 30% glacial acetic acid to all wells with shaking plates on Microplate reader (TECAN, Inc.) to measure the absorbance, using a test wavelength of 490 nm. Besides, compare the treated samples with the control cell. The cytotoxicity was estimated by IC50 in (μ M), the concentration that inhibits 50% of growth of cancer cell. […]
as §5, with “targeted compounds were estimated within the ATP-binding sites after elimination of the co-crystallized” for “targeted”
Percentage cytotoxicity of 100 µM of the compounds on human tumor cell lines*

COc1cccc2c1C(=O)c1c(O)c3c(c(O)c1C2=O)C[C@@](O)(C(=O)CO)C[C@@H]3O[C@H]1C[C@H](N)[C@H](O)[C@H](C)O1 [Doxorubicin, reference compound]
IC50 ([1]; Homo sapiens, MCF7, MCF-7, 48 h incubation, mean of three values, read-out: IC50 (Mean ± SD) MCF-7): 40 ± 3.9 µM
IC50 ([2]; Homo sapiens, HCT-116, 48 h incubation, mean of three values, read-out: IC50 (Mean ± SD) HCT-116): 20.5 ± 2.1 µM
IC50 ([3]; Homo sapiens, PC-3, 48 h incubation, mean of three values, read-out: IC50 (Mean ± SD) PC-3): 6.8 ± 1.2 µM
IC50 [4]: 49.2 ± 1.08 µM

CC(=O)OC[C@H]1O[C@@H](n2cnn3c(=O)c4c5c(sc4nc23)CCC5)[C@H](OC(C)=O)[C@@H](OC(C)=O)[C@@H]1OC(C)=O [Compound 14, 3-(2,3,4,6-Tetra-O-acetyl-β-d-glocopyranosyl)-7,8-dihydro-3H-cyclopenta-[4,5]thieno-[2,3-d][1,2,4]triazolo[1,5-a]pyrimidin-9(6H)-one]
Percentage cytotoxicity on MCF-7 ([1]; 12.5 µM): 0.0±0.005%
Percentage cytotoxicity on MCF-7 ([1]; 25 µM): 0.0±0.005%
Percentage cytotoxicity on MCF-7 ([1]; 50 µM): 0.0±0.005%
Percentage cytotoxicity on MCF-7 ([1]; 100 µM): 29.2±0.8%
Percentage cytotoxicity on HCT-116 ([2]; 12.5 µM): 0.0±0.005%
Percentage cytotoxicity on HCT-116 ([2]; 25 µM): 0.0±0.005%
Percentage cytotoxicity on HCT-116 ([2]; 50 µM): 0.0±0.005%
Percentage cytotoxicity on HCT-116 ([2]; 100 µM): 15.7±2.9%
Percentage cytotoxicity on PC-3 ([3]; 12.5 µM): 0.0±0.005%
Percentage cytotoxicity on PC-3 ([3]; 25 µM): 0.0±0.005%
Percentage cytotoxicity on PC-3 ([3]; 50 µM): 0.0±0.005%
Percentage cytotoxicity on PC-3 ([3]; 100 µM): 9.5±1.9%
melting point: > 300 °C

COc1ccc(-c2nn3c(=O)c4c5c(sc4nc3n2[C@@H]2O[C@H](COC(C)=O)[C@@H](OC(C)=O)[C@H](OC(C)=O)[C@H]2OC(C)=O)CCC5)cc1 [Compound 16, 2-(4-Methoxyphenyl)-3-(2,3,4,6-tetra-O-acetyl-β-D-glocopyranosyl)-7,8-dihydro-3H-cyclopenta[4,5]thieno[2,3-d][1,2,4]triazolo[1,5-a]pyrimidin-9(6H)-one]
Percentage cytotoxicity on MCF-7 ([1]; 12.5 µM): 0.0±0.005%
Percentage cytotoxicity on MCF-7 ([1]; 25 µM): 0.0±0.005%
Percentage cytotoxicity on MCF-7 ([1]; 50 µM): 0.0±0.005%
Percentage cytotoxicity on MCF-7 ([1]; 100 µM): 29.5±1.6%
Percentage cytotoxicity on HCT-116 ([2]; 12.5 µM): 0.0±0.005%
Percentage cytotoxicity on HCT-116 ([2]; 25 µM): 0.0±0.005%
Percentage cytotoxicity on HCT-116 ([2]; 50 µM): 0.0±0.005%
Percentage cytotoxicity on HCT-116 ([2]; 100 µM): 1.0±0.5%
Percentage cytotoxicity on PC-3 ([3]; 12.5 µM): 0.0±0.005%
Percentage cytotoxicity on PC-3 ([3]; 25 µM): 0.0±0.005%
Percentage cytotoxicity on PC-3 ([3]; 50 µM): 0.0±0.005%
Percentage cytotoxicity on PC-3 ([3]; 100 µM): 14.5±1.6%
melting point: > 300 °C

CC(=O)C/C(C)=N/n1c(N[C@@H]2O[C@H](COC(C)=O)[C@@H](OC(C)=O)[C@H](OC(C)=O)[C@H]2OC(C)=O)nc2sc3c(c2c1=O)CCC3 [Compound 15, (E)-3-((4-Oxopentan-2-ylidene)amino)-2-((2,3,4,6-tetra-O-acetyl-β-D-glocopyranosyl)amino)-6,7-dihydro-3H-cyclopenta[4,5]thieno[2,3-d]pyrimidin-4(5H)-one]
Percentage cytotoxicity on MCF-7 ([1]; 12.5 µM): 0.0±0.005%
Percentage cytotoxicity on MCF-7 ([1]; 25 µM): 0.0±0.005%
Percentage cytotoxicity on MCF-7 ([1]; 50 µM): 0.0±0.005%
Percentage cytotoxicity on MCF-7 ([1]; 100 µM): 19.7±3.7%
Percentage cytotoxicity on HCT-116 ([2]; 12.5 µM): 0.0±0.005%
Percentage cytotoxicity on HCT-116 ([2]; 25 µM): 0.0±0.005%
Percentage cytotoxicity on HCT-116 ([2]; 50 µM): 0.0±0.005%
Percentage cytotoxicity on HCT-116 ([2]; 100 µM): 3.0±1.2%
Percentage cytotoxicity on PC-3 ([3]; 12.5 µM): 0.0±0.005%
Percentage cytotoxicity on PC-3 ([3]; 25 µM): 0.0±0.005%
Percentage cytotoxicity on PC-3 ([3]; 50 µM): 0.0±0.005%
Percentage cytotoxicity on PC-3 ([3]; 100 µM): 5.6±1.2%
melting point: > 300 °C

O=c1c2c3c(sc2nc2[nH]c(-c4ccc([N+](=O)[O-])cc4)nn12)CCC3 [Compound 10c, 2-(4-Nitrophenyl)-3,6,7,8-tetrahydro-9H-cyclopenta[4,5]thieno[2,3-d][1,2,4]triazolo[1,5-a]pyrimidin-9-one]
Percentage cytotoxicity on MCF-7 ([1]; 12.5 µM): 8.18±1.01%
Percentage cytotoxicity on MCF-7 ([1]; 25 µM): 24.04±2.59%
Percentage cytotoxicity on MCF-7 ([1]; 50 µM): 25.97±1.28%
Percentage cytotoxicity on MCF-7 ([1]; 100 µM): 33.62±2.13%
Percentage cytotoxicity on HCT-116 ([2]; 12.5 µM): 20.2±2.9%
Percentage cytotoxicity on HCT-116 ([2]; 25 µM): 38.2±0.9%
Percentage cytotoxicity on HCT-116 ([2]; 50 µM): 39.4±0.9%
Percentage cytotoxicity on HCT-116 ([2]; 100 µM): 40.4±2.4%
Percentage cytotoxicity on PC-3 ([3]; 12.5 µM): 48.3±2.0%
Percentage cytotoxicity on PC-3 ([3]; 25 µM): 53.4±1.2%
Percentage cytotoxicity on PC-3 ([3]; 50 µM): 54.8±1.6%
Percentage cytotoxicity on PC-3 ([3]; 100 µM): 54.7±2.8%
melting point: 220 °C
